In general, MIC refers to the lowest concentration that inhibits growth of the organism.

Assay [1] deals with Pseudomonas aeruginosa ATCC7700. Kind of assay: Antibacterial spectrum MIC (Table 7). The format is cell-based. How it is done: (§1) Methicillin-susceptible Staphylococcus aureus (MSSA) NCTC8325 and methicillin-resistant Staphylococcus aureus (MRSA) ATCC43300 were used as bacteria. The bacteria of each type were cultured using Mueller-Hinton Broth (MH-broth, Difco) as a medium. Then, the minimum inhibitory concentration (MIC) of each of the EGCG derivatives was measured by a broth microdilution method in accordance with the Clinical and Laboratory Standards Institute (CLSI) guidelines (hereinafter the same).
(§2) First, each of the EGCG derivatives was dissolved in 100% dimethyl sulfoxide (DMSO, Wako Pure Chemical Industries, Ltd.) so that the concentration thereof became 5120 μg/ml. The resultant solution was diluted with DMSO or sterile distilled water so as to prepare two-fold dilution series of antibacterial agent solutions. […] Each of these antibacterial agent solutions was dispensed to wells of a 96-well plate. The concentration of the EGCG derivative in the antibacterial agent solution dispensed to the wells was set to be 10 times as high as the final concentration. On the other hand, the bacteria were cultured in the MH-broth at 37° C. overnight, and the thus-obtained pre-culture solution was diluted with a new MH-broth so that the concentration thereof in the MH-broth became 10^−4 (10^4-fold dilution), thus preparing a bacterial culture solution of about 1×10^5 CFU/ml (CFU: Colony Forming Unit, the number of viable cells). The bacterial culture solution was further added to each well, and the mixture was cultured at 37° C. for 18 hours. The ratio (volume ratio) between the antibacterial agent solution and the bacterial culture solution added to each well was set to 1:9 (the antibacterial agent solution:the bacterial culture solution), and the volume of the mixture of them per well was set to 100 μl in total. The final concentration of the EGCG derivative in the mixture was set to 8 μg/ml to 512 μg/ml, and the number of viable cells in the mixture was set to about 1×10^5 CFU/ml. Then, after the completion of the culture, the MIC was determined. Also, the turbidity (OD600 nm) was measured using a plate reader so as to identify minor differences.
(§3) Regarding the respective type strains shown in Tables 7 and 8 below, the MIC measurement was performed using the antibacterial agent solutions of Example 2 in the same manner as described in Section (2) of Example 1, except for the following. The antibacterial agent solutions were prepared by dissolving the EGCG derivatives of Example 2 in 100% DMSO and then diluting the resultant mixtures with sterile distilled water. The respective strains were derived from ATCC or NCTC. As Moraxella catarrhalis and Aspergillus fumigatus, clinical isolates thereof without an acquired resistance mechanism were used. For nutrient-rich bacteria, namely, Streptococcus pneumoniae ATCC49619, Streptococcus pyogenes ATCC19615, Streptococcus agalactiae ATCC13813, Moraxella catarrhalis, and Haemophilis influenzae ATCC49766, Strepto Haemo supplement (Eiken Chemical Co., Ltd.) was added to media for culturing them. The MIC measurement with respect to fungi was carried out by a broth microdilution method using a RPMI1640/MOPS (pH 7.0) medium in accordance with CLSI guidelines. About 2×10^3 cells/ml of fungi were inoculated to the medium. After the culture at 35° C. for 24 to 48 hours, the MIC was determined. Also, regarding the antibacterial agent solution of Comparative Example 2, the MIC was measured in the same manner.

In assay [2] the test system is Proteus vulgaris ATCC13315. Kind of assay: Antibacterial spectrum MIC (Table 7). In kind it is cell-based. The method, then: as §1, §2, §3
The subject of the next assay is MRSA ATCC43300. Description: Bactericidal effect, number of remaining viable cells. The format is cell-based, Staphylococcus aureus. The note with it: EGCG-C16 25 μg/ml, 0 to 6 hours, FIG. 2(A). The method, then: (§4) The bactericidal effect of EGCG-C16 against MRSA ATCC43300, E. coli MG1655, and P. aeruginosa PAO1 was measured. Each strain of bacteria was cultured using an MH-broth as a medium.
(§5) The antibacterial agent solution and the bacterial culture solution were mixed together and the resultant mixture was cultured at 37° C. in the same manner as described in the above section (2), except that the final concentration of the EGCG-C16 in the mixture were set to: 6.25 μg/ml or 25 μg/ml for the MRSA; 200 μg/ml for the E. coli; and 50 μg/ml, 100 μg/ml, and 200 μg/ml for the P. aeruginosa. The number of viable cells in the mixture of the antibacterial agent solution and the bacterial culture solution was set to 1×10^5 CFU/ml. Then, after a lapse of a predetermined time from the start of the culture (0 hours, 2 hours, 4 hours, and 6 hours), the culture solution was collected and diluted with physiological saline so as to prepare 10-fold dilution series of solutions. 100 μl of each of the diluted bacterial culture solutions was placed on a petri dish. The diluted bacterial culture solution was hardened by mixing it with 10 ml of a Trypticase-soy Agar (BBL) that was kept at 50° C., and cultured at 37° C. overnight. Then, the number of the formed colonies (CFU/ml) was counted, and the number of remaining viable cells was measured. […]

The subject of the next assay is P. aeruginosa PAO1. The description is as above. In kind it is cell-based, Pseudomonas aeruginosa. To be noted: EGCG-C16 50, 100, 200 μg/ml, 0 to 6 hours, FIG. 2(C). How it is done: as §4, §5
The test system of another assay is E. coli MG1655. Described as above. In kind it is cell-based, Escherichia coli. The note with it: EGCG-C16 200 μg/ml, 0 to 6 hours, FIG. 2(B). The method, then: as §4, §5

Values after ≈ are worked out from the molar mass of the structure shown.

`O=C(O[C@@H]1Cc2c(O)cc(O)cc2O[C@@H]1c1cc(O)c(O)c(O)c1)c1cc(O)c(O)c(O)c1` [EGCG, Epigallocatechin gallate, reference compound]: the MIC in assay [1] and in assay [2] was 64 µg/mL (≈ 140 µM) each time.

Consider EGCG-stearate [EGCG-C18], for which, in assay [1], the MIC came out at 32 µg/mL.

Take EGCG-palmitate [EGCG-C16]: the “number of remaining viable cells” value with MRSA ATCC43300 was “not only inhibited the propagation but also reduced the number of viable cells”; with P. aeruginosa PAO1, “bacteriostatic action”; with E. coli MG1655, “bacteriostatic action”.

In turn, EGCG-linolate [EGCG-C18DE] yielded an MIC in assay [2] of 32 µg/mL.
